In brackets after ≈: the same amount, converted by molar mass.
Experiments:
Typhlodromus pyri = assay: LR50; higher = less toxic
Plant = details: not reported; no effects
Tagia sp. = details: acute; duration: 14 days; mortality
Oncorhynchus mykiss = details: acute; duration: 96 hours; mortality
Pleurozium sp. = details: acute; duration: 72 hours; biomass
Rattus norvegicus = details: for NOAEL: hematological
Coturnix japonica = details: acute, oral, mortality
Canidae = details: chronic; duration: 1 years; oral; Dog Other; hematological
Apis mellifera = details: acute; duration: 48 hours; oral; unspecified; mortality
Colinus virginianus = details: reproduction developmental; reproduction
Anas platyrhynchos = details: for LD50: oral, mortality
Daphnia magna = details: chronic/long-term; duration: 21 days; reproduction

CCCCCCCCCCCCC1=C(OC(C)=O)C(=O)c2ccccc2C1=O [Acequinocyl]
LR50 (Typhlodromus pyri; acute, duration: 7 days, mortality): 8.52 g/ha
LR50 (Typhlodromus pyri; not reported, reproduction): 10 g/ha
LEL (Plant): 5000 g/ha
LC50 (Tagia sp.): > 1000 mg/kg
LC50 (Oncorhynchus mykiss): 65 µg/mL (≈ 169 µM)
LC50 (Pleurozium sp.): 0.93 µg/mL (≈ 2.42 µM)
LD50 (Rattus norvegicus; acute, oral, mortality): > 4860 mg/kg
NOAEL (Rattus norvegicus; chronic, duration: 2 years): 2.3 mg/kg-day
NOAEL (Rattus norvegicus; repeat dose other, oral): 8 mg/kg-day
NOAEL (Rattus norvegicus; reproduction developmental): 6.9 mg/kg-day
LD50 (Coturnix japonica; diet): > 847 mg/kg
LD50 (Coturnix japonica): > 1940 mg/kg
NOAEL (Canidae): 5 mg/kg-day
LD50 (Apis mellifera): > 100 µg/piece
NOEL (Colinus virginianus): 217 mg/kg-day
LD50 (Anas platyrhynchos; acute, unspecified): > 1940 mg/kg
NOEL (Anas platyrhynchos; reproductive, reproduction): 7.48 mg/kg
LD50 (Anas platyrhynchos; short-term, feed): > 1340 mg/kg
NOEC (Daphnia magna): 0.00098 mg/L
